Results: patent publication US11077109B2, “Compounds having antibacterial activity and methods of use” (The Trustees of Princeton University, priority 2017, dated 2021)
Converted amounts (≈) assume the structure as drawn. Where a name gives a salt, the structure may show the parent alone.

Legend:
[1] = tested on: E. coli MC4100 imp4213 (imp) strain; test: MIC of lead compounds on the imp strain, microdilution method in 96-well plates; assay type: cell-based
Source text: With the aim of finding antibiotics with novel MOAs, an unbiased whole-cell screening approach was applied. To include antibiotics that target either gram-negative and gram-positive bacteria, compounds were screened that inhibited growth of the E. coli MC4100 imp4213 (imp) strain, which has a compromised OM that makes it permeable to antibiotics that would otherwise not penetrate the gram-negative lipolysaccheride (LPS). […] unique compounds spanning 5 libraries were screened, with 32,343 compounds represented once, 923 duplicates, 114 triplicates, 12 quadruplicates and 2 compounds represented five times, all at the concentration of 50 uM in DMSO.
From the 186 unique hits, 32 lead compounds were selected that either had not been identified as antibiotics or had unknown or ambiguous MOAs for further investigation. To understand the potency of these compounds, their minimum inhibitory concentration (MIC) was measured on the imp strain using the microdilution method in 96-well plates.

[2] = tested on: Neisseria gonorrhoeae CCUG57598; test: MIC against panel of clinically important pathogens: N. gonorrhoeae; assay type: cell-based; details: read-out: MIC (inhibiting concentration), N. gonorrhoeae
Procedure: (§1) In an effort to understand how effective these 8, possibly novel, antibiotics might be in treating infections, their MICs against a panel of 22 clinically important pathogens shown in Table II were measured. In addition, the MICs of 3 other compounds of interest, rivaroxaban, AZT, and triflupromazine, were measured which were associated with specific drug classes. Of particular interest, ONO-RS-82 inhibited C. difficile and N. gonorrhoeae with at concentrations of 2 μg/ml and 0.25 μg/ml respectively.

[3] = tested on: Enterococcus faecium ATCC BAA-2320; test: MIC against panel of clinically important pathogens: E. faecium; assay type: cell-based; details: ATCCBAA2320, read-out: MIC (inhibiting concentration), E. faecium
Procedure: as §1

[4] = tested on: methicillin resistant S. aureus (NARSA NRS384); test: MIC against panel of clinically important pathogens: methicillin resistant S. aureus; assay type: cell-based; details: Staphylococcus aureus, read-out: MIC (inhibiting concentration), methicillin resistant S. aureus
Procedure: as §1

[5] = tested on: Clostridium difficile ATCC BAA-1875; test: MIC against panel of clinically important pathogens: C. difficile; assay type: cell-based; details: Clostridioides difficile, ATCCBAA1875, read-out: MIC (inhibiting concentration), C. difficile
Procedure: as §1

NCM 3722 E. coli cells = test: MIC on NCM 3722 E. coli; assay type: cell-based; details: NCM 3722 cells, Gutnick Minimal Media
[6] = tested on: folate metabolites in NCM 3722 E. coli cells; test: Metabolomics and mass spectrometry of folate metabolites; assay type: cell-based
[7] = tested on: Cpx envelope stress response (cpxP); test: cpxP expression (Cpx envelope stress response activation); assay type: cell-based, E. coli MC4100 wild type; details: drug at one to one-half the MIC (AGAs and chloramphenicol 5 μg/ml, triflupromazine 50 μg/ml)
Source text: Thus, that the three AGAs fell into a distinct neighborhood not similar to the other ribosome-targeting antibiotics was unsurprising.

ΔthyA lptD4213 cells = test: Susceptibility of ΔthyA cells; assay type: cell-based, E. coli; details: supplemented with exogenous Thymine
Procedure: To test this hypothesis, the membrane potential and membrane permeability of lptD4213 cells were measured using the fluorescent dyes, DIOC2(3) and TO-PRO-3, and flow cytometry. DIOC2(3) is a cationic dye that accumulates in the cytoplasm of cells with an active membrane potential and shifts its fluorescence from red to green. The dye also stains the membrane of the cells in green and as a result the ratio of the red to green signals can provide a morphology and size independent measure of membrane potential (FIG. 14B). TO-PRO-3 is a nucleic acid stain that only stains cells with compromised membranes (FIG. 14B).

[8] = tested on: B. subtilis essential gene knockdown library (folC, folA); assay type: cell-based
Source text: The classical method of identifying the molecular target of an antibiotic is by selecting for antibiotic resistant mutants. However, SCH resistant mutants were not easily identified. A potential reason for this may be that SCH has multiple targets. To probe this hypothesis, a B. subtilis essential gene knockdown library was screened to select for strains that were sensitized to SCH (FIG. 12A). This library consists of ˜300 individual strains where the expression of each essential gene is repressed 3-fold by CRISPR interference (CRISPRi). This library was pinned onto agar plates containing a sub-MIC dose of SCH and the relative fitness of each gene was measured (FIG. 12A). […]

[9] = E. coli MC4100 imp4213 (imp) strain, microdilution

CCCCCCCCCCCCCCC[C@H](O)[C@H](N)CO (racemic) [DL-erythro-dihydrosphingosine]
MIC [1, 9]: 12.5 µM

CC[n+]1c(C=CC=C2N(C)c3ccccc3C2(C)C)sc2ccccc21 [AC-93253 iodide, 2-[3-(1,3-dihydro-1,3,3-trimethyl-2H-indol-2-ylidene)-1-propenyl]-3-ethyl-benzothiazolium iodide]
MIC ([1]; Escherichia coli): 6.25 µM

CCCCC(CC)CNC(=N)NC(=N)NCCCCCCNC(=N)NC(=N)NCC(CC)CCCC (stereo not shown) [Alexidine hydrochloride]
MIC ([1]; Escherichia coli): 12.5 µM

CC(=O)OC[C@H]1O[C@@H]([S-])[C@H](OC(C)=O)[C@@H](OC(C)=O)[C@@H]1OC(C)=O.CCP(CC)CC.[Au+] [Auranofin]
MIC [1, 9]: 6.25 µM

O=[N+]([O-])C(Br)(CO)CO [Bronopol]
MIC ([1]; Escherichia coli): 25 µM

Clc1ccc(C(c2ccc(Cl)cc2)n2cc[n+](CC(OCc3ccc(Cl)cc3Cl)c3ccc(Cl)cc3Cl)c2)cc1.[Cl-] (stereo not shown) [Calmidazolium chloride, 1-[bis(4-Chlorophenyl)methyl]-3-[2-(2,4-dichlorophenyl)-2-(2,4-dichlorobenzyloxy)ethyl]-1H-imidazolium chloride]
MIC [2]: < 1 µg/mL
MIC [3]: < 1 µg/mL
MIC [4]: < 1 µg/mL
MIC ([1]; Escherichia coli): 3.12 µM

Cc1nc2ccccc2n1Cc1ccc(Cl)cc1 [Chlormidazole]
MIC ([1]; Escherichia coli): 25 µM

Oc1ccc(Cl)cc1Cc1cc(Cl)ccc1O [Dichlorophen]
MIC ([1]; Escherichia coli): 12.5 µM

O=c1[nH]c(=O)n([C@H]2C[C@H](O)[C@@H](CO)O2)cc1F [Floxuridine]
MIC ([1]; Escherichia coli): 6.25 µM

O=C1Nc2ccc(I)cc2C1=Cc1cc(Br)c(O)c(Br)c1 [GW5074, 3-(3,5-dibromo-4-hydroxybenzyliden)-5-iodo-1,3-dihydroindol-2-one]
MIC ([1]; Escherichia coli): 6.25 µM

O=S(=O)(NCCNCC=Cc1ccc(Br)cc1)c1cccc2cnccc12 [H 89 dihydrochloride, N-[2-(p-Bromocinnamylamino)ethyl]-5-isoquinolinesulfonamide dihydrochloride]
MIC ([1]; Escherichia coli): 12.5 µM

CC[n+]1c(-c2ccccc2)c2cc(N)ccc2c2ccc(N)cc21 [Homidium bromide]
MIC ([1]; Escherichia coli): 25 µM

CC(=O)[C@]1(O)Cc2c(O)c3c(c(O)c2[C@@H](O[C@H]2C[C@H](N)[C@H](O)[C@H](C)O2)C1)C(=O)c1ccccc1C3=O [Idarubicin]
MIC ([1]; Escherichia coli): 25 µM

CCCCCc1ccc(C=CC(=O)Nc2cc(Cl)ccc2C(=O)O)cc1 [ONO-RS-082, 2-(p-amylcinnamoyl)amino-4-chlorobenzoic acid]
MIC [2]: 0.25 µg/mL (≈ 0.672 µM)
MIC [5]: 2 µg/mL (≈ 5.38 µM)
MIC ([1]; Escherichia coli): 3.12 µM

O=C(NC[C@H]1CN(c2ccc(N3CCOCC3=O)cc2)C(=O)O1)c1ccc(Cl)s1 [Rivaroxaban, (S)-5-Chloro-N-((2-oxo-3-(4-(3-oxomorpholino)phenyl)oxazolidin-5-yl)methyl)thiophene-2-carboxamide]
MIC ([1]; Escherichia coli): 0.05 µM

CC(C)c1ccc(Cn2ccc3c4c(N)nc(NC5CC5)nc4ccc32)cc1 [SCH 79797, N3-Cyclopropyl-7-[[4-(1-methylethyl)phenyl]methyl]-7H-pyrrolo[3,2-F]quinazoline-1,3-diamine dihydrochloride]
MIC (1× MIC) (NCM 3722 E. coli cells): 31.25 µM
dihydrofolate (DHF) levels versus normal DHF levels ([6]; 1× MIC for 15 minutes): approximately 10 fold
MIC ([1]; Escherichia coli): 25 µM

COc1cccc(C2(O)CCCCC2CN(C)C)c1 (stereo not shown) [Tramadol hydrochloride]
MIC ([1]; Escherichia coli): 6.25 µM

CN(C)CCCN1c2ccccc2Sc2ccc(C(F)(F)F)cc21 [Triflupromazine, N,N-dimethyl-3-[2-(trifluoromethyl)phenothiazin-10-yl]propan-1-amine]
cpxP expression [7]: induced cpxP expression
MIC ([1]; Escherichia coli): 25 µM

COc1cc(Cc2cnc(N)nc2N)cc(OC)c1OC [Trimethoprim]
susceptibility of ΔthyA lptD4213 cells (ΔthyA lptD4213 cells): resistant to high levels
sensitivity of dihydrofolate reductase (folA) knockdown ([8]; sub-MIC / sub-lethal dose): sensitized
sensitivity of dihydrofolate synthetase (folC) knockdown ([8]; sub-MIC / sub-lethal dose on agar, confirmed in liquid): sensitized
metabolic response characteristic of FolA inhibition ([6]; NCM 3722 cells): also observed

CN[C@@H]1[C@@H](O[C@H]2O[C@H](CO)[C@@H](N)[C@H](O)[C@H]2O)OC2C[C@@H](N)[C@@H](O[C@H]3[C@H](O)[C@@H](O)[C@H](N)C[C@@H]3N)OC2[C@@H]1O (stereo partly shown) [apramycin]
cpxP expression [7]: induced cpxP expression

O=C(N[C@H](CO)[C@H](O)c1ccc([N+](=O)[O-])cc1)C(Cl)Cl [chloramphenicol]
cpxP expression [7]: did not

Bleomycin
MIC [1, 9]: 0.1 µM

gentamicin
cpxP expression [7]: induced cpxP expression
